{"source": "patent US20230152325A1", "about": "“Active Alpha-5-Beta-1 Integrin As A Biomarker For Enhancing Tumor Treatment Efficacy” (Institute For Cancer Research d/b/a The Research Institute …, priority 2016, published 2023)", "key": {"[1]": {"system": "naïve pancreatic fibroblasts cultured within D-ECM", "experiment": "ECM prompted myofibroblastic maintenance (α-SMA / F-actin immunofluorescence), PDAC model", "assay_type": "cell-based, human", "conditions": "PDAC; naïve fibroblasts plated in D-ECM in presence of the agent", "procedure": "(§1) ECM prompted myofibroblastic maintenance. Human naïve or assorted murine fibroblasts were incubated for 45 minutes prior to overnight culturing within assorted ECMs, prepared as above, in the presence or absence of 50 μg/ml SNAKA51, 60 μg/m ALULA, 250 μg/m mAb16, or BMAS diluted as instructed by the manufacturer (Millipore, Temecula, Calif.), IgG control, DMSO or small molecule inhibitors FAK (PF573,228) and SRC family kinases (PP2). ECM-induced phenotypes were assessed via RT-qPCR, Western Blot or immunofluorescence.\n(§2) Naïve/innate PDAC and RCC patient harvested fibroblasts were cultured overnight within normal (N-ECM) vs. desmoplastic (D-ECM or DECMs that were produced in the presence or absence of TGFβ1-receptor inhibition (D+TGFβi) or vehicle control (D+DMSO). Alternatively, naïve cells cultured within D-ECMs were treated with either TGFβ1-receptor inhibitor (TGFβ-i), vehicle (DMSO), functional blocking antibodies anti-αvβ5 integrin (alula, αvβ5-i), anti-α5β1 integrin (mAb16, α5β1-i), combinations of both functional blocking antibodies (β5-i+α5-i), functional stabilizing anti α5β1 integrin (SNAKA51; α5β1-act) or non-immunized isotypic antibodies (IgG). All samples were subjected to indirect immunofluorescent labeling of desmoplastic marker α-SMA and counterstained with fluorescently labeled phalloidin to detect actin stress fibers (F-actin) and determine the co-localization ratio. Monochromatic “heat map” images (see, FIG. 2A) represent α-SMA intensity values. A 255 tones intensity scale bar is shown to the right. A summary of all measured values is graphed in FIG. 2B. Additional monochromatic images indicative of double labeled staining for α-SMA and F-actin are in FIG. 2C while levels of total α-SMA localized at corresponding stress fibers are plotted in FIG. 2D. Untreated D-ECM conditions were included in all experiments summarized in this figure and serve as normalization (1 arbitrary unit; a.u.) controls. Matching values including statistical significances are listed in accompanying Table 1. All scale bars represent 50 μm. TGFβ activity was needed to maintain functional D-ECM production but was dispensable when testing D-ECM induced responses, while the later were obstructed by αvβ5 integrin inhibition or active α5β1 integrin stabilization."}, "[2]": {"system": "naïve renal fibroblasts cultured within D-ECM", "experiment": "ECM prompted myofibroblastic maintenance (α-SMA / F-actin immunofluorescence), RCC model", "assay_type": "cell-based, human", "conditions": "RCC; naïve fibroblasts plated in D-ECM in presence of the agent", "procedure": "as §1, §2"}, "[3]": {"system": "murine fibroblasts cultured in mD-ECM", "experiment": "mD-ECM induced myofibroblastic activation of murine fibroblasts (stress fiber α-SMA)", "assay_type": "cell-based", "conditions": "wild type murine fibroblasts in mD-ECM (80% untreated)", "procedure": "as §1\nFIGS. 3A through 3H show FAK independent α5β1 integrin activity negatively regulates D-ECM-induced desmoplastic activation. […]"}}, "data": [{"compound": "CS(=O)(=O)c1cccc(CNc2nc(Nc3ccc4c(c3)CCC(=O)N4)ncc2C(F)(F)F)c1", "note": "[PF573,228]", "values": [{"measurement": "α-SMA expression levels relative to untreated conditions", "setting": "[1]", "result": 17, "unit": "%"}, {"measurement": "α-SMA stress fiber localization levels", "setting": "[1]", "result": 23.5, "unit": "%"}, {"measurement": "α-SMA expression levels relative to untreated conditions", "setting": "[2]", "result": 70, "unit": "%"}, {"measurement": "α-SMA stress fiber localization levels", "setting": "[2]", "result": 25, "unit": "%"}, {"measurement": "cells undergoing myofibroblastic activation", "setting": "[3]", "result": 32, "unit": "%"}]}]}
